9 molecules from patent publication US6329390A, “5-Bicycloindole compounds” (NPS Allelix Corp., priority 1998, dated 2001) can be followed below.

One assay has as its target T1, 5-HT1D receptor (Homo sapiens, UniProt P28221).
T1 construct: expressed in transfected cells
The assay is described as follows: Binding affinity, inhibition of 3H-serotonin binding to membranes of cells expressing the 5-HT1D receptor. Conditions: for inhibition at 0.1 µM: 100 nM of test compound, 3H-serotonin 1 nM, 60 minute incubation at 22° C., read-out: affinity for the 5-HT1D receptor: amount (in percent) of binding of the radioligand that is inhibited; for binding at the 5-HT1D receptor (in words): at a concentration of 100 nM. As for the experimental part: (§1) Selected compounds of the previous examples, as well as reference compounds were evaluated for binding affinity using cell types receptive specifically to 5-HT1D and 5-HT1B ligands. The assay protocol generally entailed the incubation of membranes prepared f cells expressing the 5-HT1D or 5-HT1B subtype of 5-HT receptors with ^3 H serotonin (1 nM for 5-HT1 D and 2.5 nM for 5-HT1B). Specific concentrations of the test compound were incubated with the radioligand and the membrane homogenates prepared from the recombinant cells. After a 60 minute incubation at 22° C., the incubation was terminated by vacuum filtration. The filters were washed with buffer and counted for radioactivity using liquid scintillation spectroscopy. The affinity of the test compound for the 5-HT1D receptor is expressed as the amount (in percent) of binding of the radioligand that is inhibited in the presence of 100 nM of test compound. A greater percent inhibition indicates greater affinity for the 5-HT1D receptor.

The next assay addresses T2, 5-HT1B receptor (Homo sapiens, UniProt P28222).
T2 construct: expressed in transfected cells
The assay is described as follows: Binding affinity, inhibition of 3H-serotonin binding to membranes of cells expressing the 5-HT1B receptor. The conditions noted are these: for binding at the 5-HT1B receptor (in words): at a concentration of 100 nM; for inhibition at 0.1 µM: 100 nM of test compound, 3H-serotonin 2.5 nM, 60 minute incubation at 22° C., read-out: affinity for the 5-HT1B receptor (percent inhibition of radioligand binding). As for the experimental part: as §1

T2 sequence (P28222 whole entry): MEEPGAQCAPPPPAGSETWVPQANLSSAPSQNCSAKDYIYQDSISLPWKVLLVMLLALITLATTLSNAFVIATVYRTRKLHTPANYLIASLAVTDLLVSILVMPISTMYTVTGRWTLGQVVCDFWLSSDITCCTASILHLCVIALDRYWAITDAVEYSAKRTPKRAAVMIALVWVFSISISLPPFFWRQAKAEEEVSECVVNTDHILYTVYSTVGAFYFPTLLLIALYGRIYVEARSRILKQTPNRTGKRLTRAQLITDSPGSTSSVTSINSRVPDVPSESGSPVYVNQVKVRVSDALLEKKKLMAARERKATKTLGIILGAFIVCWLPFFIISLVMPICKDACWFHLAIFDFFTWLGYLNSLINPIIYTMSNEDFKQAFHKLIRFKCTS
T1 sequence (P28221 whole entry): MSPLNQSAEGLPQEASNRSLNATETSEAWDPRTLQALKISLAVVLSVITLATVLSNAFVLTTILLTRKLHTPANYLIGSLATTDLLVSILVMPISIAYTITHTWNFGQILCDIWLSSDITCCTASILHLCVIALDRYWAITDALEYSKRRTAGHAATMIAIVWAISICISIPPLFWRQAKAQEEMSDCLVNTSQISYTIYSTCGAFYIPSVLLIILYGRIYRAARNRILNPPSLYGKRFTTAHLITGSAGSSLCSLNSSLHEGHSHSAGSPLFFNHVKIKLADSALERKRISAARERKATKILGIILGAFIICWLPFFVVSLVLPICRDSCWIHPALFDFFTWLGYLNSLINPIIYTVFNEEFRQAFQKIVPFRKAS

As for `CN(C)CCc1c[nH]c2ccc(C3(O)CCN4CCCC4C3)cc12` (single isomer, unassigned) [Example 6c, 5-[(7-R or S)(8a-R,S)-7-Hydroxyoctahydroindolizin-7-yl]-3-[2-(N,N-dimethylamino)ethyl]indole], the inhibition at 0.1 µM on 5-HT1D receptor was > 90%. Take `CN1CCC[C@H]1Cc1c[nH]c2ccc(C3CCN4CCCC4C3)cc12` (single isomer, unassigned) [Example 8a, 5-[(7R or 7S)(8a-R,S)-Octahydroindolizin-7-yl]-3-{[(2S)-N-methylpyrrolidin-2-yl]methyl}-1 H-indole]: the “binding at the 5-HT1B receptor (in words)” value on 5-HT1B receptor is given as “little, if any, binding”. Also, the “binding at the 5-HT1D receptor (in words)” value at 5-HT1D receptor is on record as “little, if any, binding”. On to `CN1CCC[C@H]1Cc1c[nH]c2ccc(C3CCN4CCCC4C3)cc12` (single isomer, unassigned) [Example 8b, 5-[(7R or 7S)(8a-R,S)-Octahydroindolizin-7-yl] 3-{[(2S)-N-methylpyrrolidin-2-yl]methyl}-1 H-indole], for which the “binding at the 5-HT1B receptor (in words)” value on 5-HT1B receptor is given as “little, if any, binding”. Also, the “binding at the 5-HT1D receptor (in words)” value on 5-HT1D receptor was “little, if any, binding”. For `CN1CCC[C@H]1Cc1c[nH]c2ccc(C3(O)CCN4CCCC4C3)cc12` (stereo partly drawn) [Example 6a, 5-[(7-R,S)(8a-R,S)-7-Hydroxyoctahydroindolizin-7-yI]-3-{[(2S)-N-methylpyrrolidin-2-yl]methyl}-1 H-indole], the “binding at the 5-HT1B receptor (in words)” value on 5-HT1B receptor was “little, if any, binding”. Also, the “binding at the 5-HT1D receptor (in words)” value at 5-HT1D receptor is recorded as “little, if any, binding”. Turning to `CN1CCC[C@@H]1Cc1c[nH]c2ccc(C3(O)CCN4CCCC4C3)cc12` (stereo partly drawn) [Example 6b, 5-[(7-R,S)(8a-R,S)-7-Hydroxyoctahydroindolizin-7-yl]-3-{[(2R)-N-methylpyrrolidin-2-yl]methyl}-1H-indole], the inhibition at 0.1 µM at 5-HT1B receptor is < 30%. For the molecule `CN1CCC[C@H]1Cc1c[nH]c2ccc(C3=CC4CCCN4CC3)cc12` (stereo partly drawn) [Example 7a, 5-[(8a-R,S)-1,2,3,5,6,8a-Hexahydroindolizin-7-yl]-3-{[(2S)-N-methylpyrrolidin-2-yl]methyl}-1 H-indole], the “binding at the 5-HT1B receptor (in words)” value on 5-HT1B receptor was “little, if any, binding”. Besides, the “binding at the 5-HT1D receptor (in words)” value on 5-HT1D receptor is given as “little, if any, binding”.

`CN1CCC[C@H]1Cc1c[nH]c2ccc(C3=CCN4CCCC4C3)cc12` (stereo partly drawn) [Example 7b, 5-[(8a-R,S)-1,2,3,5,8,8a-Hexahydroindolizin-7-yl]-3-{[(2S)-N-methylpyrrolidin-2-yl]methyl}-1 H-indole]: the “binding at the 5-HT1B receptor (in words)” value at 5-HT1B receptor is “little, if any, binding”. Moreover, the “binding at the 5-HT1D receptor (in words)” value at 5-HT1D receptor is “little, if any, binding”. For `CN1CCC[C@@H]1Cc1c[nH]c2ccc(C3=CCN4CCCC4C3)cc12` (stereo partly drawn) [Example 7d, 5-[(8a-R,S)-1,2,3,5,8,8a-Hexahydroindolizin-7-yl]-3-{[(2R)-N-methylpyrrolidin-2-yl]methyl}-1H-indole], on 5-HT1D receptor, the inhibition at 0.1 µM is > 90%. As to `CN1CCC[C@@H]1Cc1c[nH]c2ccc(C3CCN4CCCC4C3)cc12` (stereo partly drawn) [Example 8c, 5-[(7-R,S)(8a-R,S)-Octahydroindolizin-7-yl]- -{[(2R)-N-methylpyrrolidin-2-yl]methyl}-1H-indole], the inhibition at 0.1 µM at 5-HT1B receptor was < 30%.
